Measurements taken from patent publication US8829003B2, “Compounds for treating proliferative disorders” (Changzhou Le Sun Pharmaceuticals Limited, priority 2010, dated 2014).

Experiments:
cancer cells = assay: MTT proliferation assay; format: cell-based; conditions: GI50 values only in FIG. 4
From the text: C.1. MTT Proliferation Assay.
The compounds from the examples above were subjected to a standard cellular proliferation assay using the method described previously in S. Wang et al. J Med Chem. 2004, 47, 1662-1675. The data analysis used program Deltasoft 3™ and Microsoft Excel to determine GI50 values (concentration of test compound which inhibits cell growth by 50%).

[1] = system: HCT-116 human colon cancer cells; assay: Cell-cycle effects, DNA content by flow cytometry; format: cell-based; conditions: HCT-116 cells, 0.62 μM, 48 hrs
Procedure: HCT-116 human colon cancer cells were treated with DMSO and A.12 at GI50 and […] respectively for a period of 48 hrs. The cells were analysed for their DNA content by flow cytometry.
This further indicates the efficacy of the compounds of the invention.

[2] = Mouse pharmacokinetics, IV and oral dosing; conditions: mice
Procedure: For PK measurements male adult CD1 mice weighing 25-30 g (Charles River) are split into weight matched groups of 3 per group. IV dosed mice were restrained in individual restraining tubes, the tail was warmed in warm water to vasodilate the tail vein, and the IV bolus was then administered via the tail vein. Orally dosed mice were held at the scruff of the neck and dosed via a metal gavage directly into the stomach. Immediately after dosing mice are returned to their cage, plastic box cage with sawdust bedding, and food and water available. Blood samples were collected from the mouse under anaesthesia by cardiac puncture using a 1 mL syringe and 25 gauge needle at time zero and at intervals up to 8 h. Harvested blood was centrifuged at 7000×G for 2 minutes, and the plasma aspirated and frozen at 20° C. until analysis. Quantitative compound level analysis was carried out using LC-MS/MS methods. Pharmacokinetic data derived using PK Solutions 2.0, non-compartmental analysis. Oral bioavailability (% F) was calculated by taking the ratio of dose-normalised AUC values from oral versus parenteral dosing.

| Compound | inhibition of cell growth (cancer cells) | apoptosis (sub-G1 cells) [1] | effect on cell cycle progression [1] | pharmacokinetic properties compared with ON01910.Na ([2]; IV and PO) | oral bioavailability (F) ([2]; oral, 10 mg/kg) |
| --- | --- | --- | --- | --- | --- |
| COc1cc(OC)c(/C=C/S(=O)(=O)Cc2cnc(OC)c(NS(C)(=O)=O)c2)c(OC)c1 [A.12, (E)-N-(2-methoxy-5-((2,4,6-trimethoxystyrylsulfonyl)methyl)pyridin-3-yl)methanesulfonamide] | effectively inhibit cell growth | increased sub-G1 cells | block of their cell cycle progression in G2/M phase | significantly improved pharmacokinetic properties | 56% |
| COc1cc(OC)c(/C=C/S(=O)(=O)Cc2ccc(OC)c(N3CCCCC3)n2)c(OC)c1 [A.29, (E)-3-Methoxy-2-(piperidin-9-yl)-6-((2,4,6-trimethoxystyrylsulfonyl)methyl)pyridine] | effectively inhibit cell growth |  |  |  |  |
| COc1cc(OC)c(/C=C/S(=O)(=O)Cc2cnc(OC)c(N)c2)c(OC)c1 [A.10, (E)-2-methoxy-5-((2,4,6-trimethoxystyrylsulfonyl)methyl)pyridin-3-amine] | effectively inhibit cell growth |  |  |  |  |
| COc1cccc(OC)c1/C=C/S(=O)(=O)Cc1cnc(OC)c([N+](=O)[O-])c1 [A.17, (E)-5-((2,6-Dimethoxystyrylsulfonyl)methyl)-2-methoxy-3-nitropyridine] | effectively inhibit cell growth |  |  |  |  |
| CCOC(=O)CNc1cc(CS(=O)(=O)/C=C/c2c(OC)cc(OC)cc2OC)cnc1OC [A.13, (E)-ethyl 2-(2-methoxy-5-((2,4,6-trimethoxystyrylsulfonyl)methyl)pyridin-3-ylamino)acetate] | effectively inhibit cell growth |  |  |  |  |
